These results are taken from patent publication US20090270398A1, “Compounds, Compositions and Methods Comprising Pyridazine Derivatives” (Institute for OneWorld Health, priority 2008, published 2009).

In one experiment the test system is cholera toxin (CTX)-induced net fluid secretion in intestinal loops.
Experiment: not given
Particulars: 4 hours. The experiment is classed as in vivo, mice (CD1 strain).
With `OCCN(Cc1ccccc1)c1ccc(-c2cc(Cl)c(O)c(Cl)c2)nn1` [Compound 98, 4-(6-(benzyl(2-hydroxyethyl)amino)pyridazin-3-yl)-2,6-dichlorophenol], the “closed loop % inhibition @ 100 μg” value amounted to 67.0%.

`CCN(Cc1ccccc1)c1ccc(-c2cc(Cl)c(O)c(Cl)c2)nn1` [Compound 115, 4-(6-(benzyl(ethyl)amino)pyridazin-3-yl)-2,6-dichlorophenol]: the “closed loop % inhibition @ 100 μg” value is reported as 79.4%.

For a further experiment, the target named is T1, CFTR (Homo sapiens, UniProt P13569).
T1 construct: results in the phosphorylation and opening of CFTR anion channels
T1 sequence (P13569 whole entry): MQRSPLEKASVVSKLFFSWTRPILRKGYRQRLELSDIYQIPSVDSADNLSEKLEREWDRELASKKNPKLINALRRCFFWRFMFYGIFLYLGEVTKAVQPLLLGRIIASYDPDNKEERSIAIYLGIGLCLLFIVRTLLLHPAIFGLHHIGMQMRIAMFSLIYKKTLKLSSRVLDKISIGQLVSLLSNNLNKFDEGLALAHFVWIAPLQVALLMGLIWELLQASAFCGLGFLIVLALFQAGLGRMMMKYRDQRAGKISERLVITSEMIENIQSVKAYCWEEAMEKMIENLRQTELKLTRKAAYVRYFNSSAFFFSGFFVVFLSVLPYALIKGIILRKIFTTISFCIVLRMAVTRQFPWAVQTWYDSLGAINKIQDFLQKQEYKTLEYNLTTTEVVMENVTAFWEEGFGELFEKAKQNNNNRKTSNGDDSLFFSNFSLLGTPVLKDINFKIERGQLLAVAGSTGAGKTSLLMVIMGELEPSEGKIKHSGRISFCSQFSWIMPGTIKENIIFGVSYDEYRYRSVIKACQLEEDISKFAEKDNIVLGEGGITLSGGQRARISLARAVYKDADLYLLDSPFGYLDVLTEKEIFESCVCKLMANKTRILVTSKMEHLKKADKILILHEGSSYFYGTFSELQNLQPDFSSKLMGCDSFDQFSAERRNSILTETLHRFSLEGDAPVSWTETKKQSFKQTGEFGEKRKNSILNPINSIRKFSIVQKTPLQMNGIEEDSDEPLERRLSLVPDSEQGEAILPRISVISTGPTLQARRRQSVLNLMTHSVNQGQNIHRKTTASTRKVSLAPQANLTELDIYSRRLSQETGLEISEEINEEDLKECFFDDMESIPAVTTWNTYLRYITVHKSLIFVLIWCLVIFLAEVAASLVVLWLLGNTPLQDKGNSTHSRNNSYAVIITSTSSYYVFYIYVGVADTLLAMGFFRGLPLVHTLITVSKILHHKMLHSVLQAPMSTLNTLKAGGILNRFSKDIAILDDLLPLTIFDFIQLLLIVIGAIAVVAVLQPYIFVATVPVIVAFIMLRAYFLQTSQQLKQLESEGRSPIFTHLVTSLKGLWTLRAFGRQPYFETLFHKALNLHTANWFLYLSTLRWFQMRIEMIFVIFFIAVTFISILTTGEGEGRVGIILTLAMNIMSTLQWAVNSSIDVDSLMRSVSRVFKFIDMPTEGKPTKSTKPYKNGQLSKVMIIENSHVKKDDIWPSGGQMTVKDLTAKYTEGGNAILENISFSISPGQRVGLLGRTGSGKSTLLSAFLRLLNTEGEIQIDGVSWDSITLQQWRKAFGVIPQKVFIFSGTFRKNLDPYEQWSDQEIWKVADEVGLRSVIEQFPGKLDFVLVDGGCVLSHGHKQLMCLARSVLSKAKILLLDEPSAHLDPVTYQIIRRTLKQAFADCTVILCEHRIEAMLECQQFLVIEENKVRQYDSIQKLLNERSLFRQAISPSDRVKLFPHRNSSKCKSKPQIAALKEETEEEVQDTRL
Kind of experiment: T84 assay (FLIPR membrane potential, forskolin/IBMX-stimulated CFTR channel activity). The experiment is classed as cell-based. To be noted: average of at least 2 runs unless annotated n = 1. The protocol: (§1) For example, Human colonic T84 cells can be acquired from the European Collection of Cell Cultures (ECACC) and grown in standard culture conditions as described by the supplier. On the day before assay 25,000 T84 cells per well are plated into standard black walled, clear bottom 384-well assay plates in standard growth medium consisting of DMEM:F12 with 10% FBS and incubated overnight. On the day of the assay the plates are washed using a standard assay buffer (HBSS with 10 mM Hepes) and incubated for 15 minutes in serum free cell culture medium before the addition of a commercially available membrane potential sensitive fluorescent dye (FLIPR Red membrane potential dye, Molecular Devices Corporation). T84 cells are incubated with the FLIPR Red membrane potential dye for 45 minutes in the presence and absence of test compound before being transferred to a commercially available fluorescence imaging plate reader (FLIPR384, Molecular Devices Corporation). Fluorescence levels are monitored continuously every second for 150 seconds; after an initial 10 second baseline, CFTR channel activity is stimulated through the addition of 10 μM forskolin in the presence of 100 μM of the phosphodiesterase inhibitor iso-butyl-methylxanthine (IBMX). Addition of the forskolin leads to the activation of intracellular adenylyl cylase 1, elevating cAMP levels and results in the phosphorylation and opening of CFTR anion channels. CFTR channel opening causes chloride ion efflux and subsequent depolarization of the cells, which is measured by an increase in fluorescence. CFTR inhibitor compounds prevent cell depolarization and the associated increase in fluorescence.
as §1, with “Human colonic” for “For example, Human colonic”, “T84 cells are acquired from” for “T84 cells can be acquired from”, “(ECACC) and are grown in” for “(ECACC) and grown in”
Unless otherwise indicated, the IC50 values are reported as an average of at least 2 runs. Where only 1 run is used, this is indicated by the annotation “n=1.”
`OCCN(Cc1ccccc1)c1ccc(-c2cc(Cl)c(O)c(Cl)c2)nn1` [Compound 98, 4-(6-(benzyl(2-hydroxyethyl)amino)pyridazin-3-yl)-2,6-dichlorophenol]: the IC50 – broadly, the concentration that inhibits the measured activity by half – was found to be 630 nM.

As for `CCN(Cc1ccccc1)c1ccc(-c2cc(Cl)c(O)c(Cl)c2)nn1` [Compound 115, 4-(6-(benzyl(ethyl)amino)pyridazin-3-yl)-2,6-dichlorophenol], the IC50 was determined as 10 nM.

Compound `CCCN(Cc1ccccc1)c1ccc(-c2cc(Cl)c(O)c(Cl)c2)nn1` [Compound 126, 4-(6-(benzyl(propyl)amino)pyridazin-3-yl)-2,6-dichlorophenol] came in with an IC50 of 20 nM.

Consider `CCN(Cc1cccc(F)c1)c1ccc(-c2cc(Cl)c(O)c(Cl)c2)nn1` [Compound 127, 2,6-dichloro-4-(6-(ethyl(3-fluorobenzyl)amino)pyridazin-3-yl)phenol], for which 30 nM corresponded to half-maximal inhibition (IC50).

`CCN(Cc1ccc(OCc2ccccc2)cc1)c1ccc(-c2cc(Cl)c(O)c(Cl)c2)nn1` [Compound 128, 4-(6-((4-(benzyloxy)benzyl)(ethyl)amino)pyridazin-3-yl)-2,6-dichlorophenol] gave an IC50 of 370 nM.

For the compound `CCOc1ccc(CN(CC)c2ccc(-c3cc(Cl)c(O)c(Cl)c3)nn2)cc1OC` [Compound 129, 2,6-dichloro-4-(6-((4-ethoxy-3-methoxybenzyl)(ethyl)amino)pyridazin-3-yl)phenol], the midpoint of inhibition, the IC50, lay at 1160 nM.

For `OCCN(Cc1cccc(OCc2ccccc2Cl)c1)c1ccc(-c2cc(Cl)c(O)c(Cl)c2)nn1` [Compound 130, 2,6-dichloro-4-(6-((3-(2-chlorobenzyloxy)benzyl)(2-hydroxyethyl)amino)pyridazin-3-yl)phenol], the IC50 came out at 2270 nM.

For the compound `CCN(Cc1ccc(OC)c(F)c1)c1ccc(-c2cc(Cl)c(O)c(Cl)c2)nn1` [Compound 131, 2,6-dichloro-4-(6-(ethyl(3-fluoro-4-methoxybenzyl)amino)pyridazin-3-yl)phenol], the IC50 worked out at 1460 nM.

Consider `CN(Cc1ccc2ncccc2c1)c1ccc(-c2cc(Cl)c(O)c(Cl)c2)nn1` [Compound 132, 2,6-dichloro-4-(6-(methyl(quinolin-6-ylmethyl)amino)pyridazin-3-yl)phenol], for which the IC50 came to 6690 nM.

`Oc1c(Cl)cc(-c2ccc(N(Cc3ccccc3)Cc3ccccc3)nn2)cc1Cl` [Compound 133, 2,6-dichloro-4-(6-(dibenzylamino)pyridazin-3-yl)phenol]: half-maximal inhibition (IC50) required 380 nM.

In the case of `COc1ccc(CN(CCO)c2ccc(-c3cc(Cl)c(O)c(Cl)c3)nn2)cc1OC` [Compound 134, 2,6-dichloro-4-(6-((3,4-dimethoxybenzyl)(2-hydroxyethyl)amino)pyridazin-3-yl)phenol], the IC50 turned out to be 6900 nM.

In turn, `Oc1c(Cl)cc(-c2ccc(N3CCN(c4cccc(F)c4)CC3)nn2)cc1Cl` [Compound 135, 2,6-dichloro-4-(6-(4-(3-fluorophenyl)piperazin-1-yl)pyridazin-3-yl)phenol] returned an IC50 of 19600 nM.

`Oc1c(Cl)cc(-c2ccc(N3CCC(Cc4ccccc4)CC3)nn2)cc1Cl` [Compound 136, 4-(6-(4-benzylpiperidin-1-yl)pyridazin-3-yl)-2,6-dichlorophenol] had an IC50 of 24900 nM.

Compound `Oc1c(Cl)cc(-c2ccc(NCc3ccc(Cl)c(Cl)c3)nn2)cc1Cl` [Compound 137, 2,6-dichloro-4-(6-(3,4-dichlorobenzylamino)pyridazin-3-yl)phenol] registered an IC50 of 6000 nM.

On to `Oc1c(Cl)cc(-c2ccc(NCc3cc(F)cc(C(F)(F)F)c3)nn2)cc1Cl` [Compound 138, 2,6-dichloro-4-(6-(3-fluoro-5-(trifluoromethyl)benzylamino)pyridazin-3-yl)phenol], for which half-maximal inhibition (IC50) required 9580 nM.
